The record followed here is patent US5661182A, “Method for lowering oxygen affinity of hemoglobin in redcell suspensions, in whole blood and in vivo” (Virginia Commonwealth University, priority 1995, dated 1997).

One data set addresses bovine hemoglobin (Bos taurus, UniProt P01966+P02070). Description: Oxygen equilibrium of isolated bovine Hb solutions (p50). The format is biochemical. As to conditions: for p50 shift at increasing chloride concentration / Hb bovine(p50): bovine Hb solution; for p50 shift at increasing chloride concentration: 0.5 mM, chloride 0-400 mM; for Hb bovine(p50): effector 0.5 mM, pH 7.2, 100 mM NaCl, 25 °C. An excerpt: L3,5 and L3,4,5 were provided by Dr. Lalezari (Montefiore Hospital, New York); RSR-4 [2-[4-[[(3,5-dichloroanilino)carbonyl]methyl]phenoxy]-2-methylpropionic acid]and RSR13 [2-4-[[(3,5- dimethylanilino)carbonyl]methyl]phenoxy]-2-methylpropionic acid] have been synthesized following the procedure described in Randad et al. (J. Med. Chem. 34,752 (1991)). Human serum albumin (HSA), bovine serum albumin (BSA) and 4,4'diisothiocyanatostilbene-2,2'-disulfonate (DIDS) were purchased from Sigma (St. Louis, Mo.). Due to their low solubility in aqueous buffer, 10 mM stock solutions of the compounds were prepared in a slight exccess of sodium bicarbonate and back-titrated to pH 7.4. For example, RSR-4 or RSR-13 was dissolved at 60° C. in a 140 mM NaCl and 50 mM bis-Tris buffer at room temperature upon progressive addition of NaHCO3 to obtain 10 mM stock solutions. The pH was carefully adjusted to 7.4 after complete solubilization and before use of the solutions. Fresh solutions were prepared each week. Stock solutions of DIDS (1 mM) were prepared, in the dark, on the day of the experiments in a pH 7.4 buffer. Human serum albumin (defatted HSA) and bovine serum albumin (BSA) were prepared freshly as 1 mM stock solutions, pH 7.4. Equilibrium Measurements. The allosteric modulation of the effectors on freshly prepared solutions of hemoglobin or red cell suspensions was measured by the change in p50, the partial pressure of oxygen for half-saturation. Oxygen equilibrium curves (OEC) were carried out with the Hemox analyzer (TCS, Southampton, Pa.) under the following conditions: pH 7.4, 140 mM NaCl and 50 mM bis-Tris buffer at 37° C. In all experiments, the concentration of hemoglobin in the red cell suspensions was 20-25 μM hemoglobin tetramer (Hb4) as measured by Drabkin's method (cyanomethemoglobin) at the end of each recording. The final concentration of the allosteric effector in the cuvette was 0.5 mM, resulting in an effector/Hb4 ratio of 20 in the absence of albumin. OEC were also made in the same buffer containing 12.5, 25, 50, and 100 μM HSA (for human red cell suspensions) or BSA (for bovine cell suspensions). The serum albumin experiments were carried out with traces of an antifoaming agent. This agent has no deleterious effect on the red cell suspensions. The molar ratio of albumin to tetrameric hemoglobin was varied from 0.5 (at 12.5 μM HSA) to 4 (at 100 μM HSA); in whole blood this ratio is approximately 0.3 (0.7 mM albumin plus plasma proteins/2.25 mM Hb4). Therefore, the concentration of albumin used in the present studies was always larger relative to tetrameric hemoglobin than that found in whole blood.
Bovine Red Cell Studies. Table 2 presents data for oxygen binding measurements for fresh bovine red blood cells and isolated Hb solutions on addition of the effectors L3,5, RSR-4, and RSR-13. The experimental conditions used were the same as described in conjunction with Table 1 for human red blood cells. The oxygen equilibrium curves for Hb solutions were made at pH 7.2, 100 mM NaCl and 50 mM bis-Tris buffer at 25° C. Catalase (20 μg/mL) and 50 μM EDTA were added to oppose oxidation of the hemes. The concentration of the effectors was 0.5 mM in all conditions. In Table 2, BSA is bovine serum albumin and P50 (mmHg) is the pO2 for 50% saturation.

The target in another data set is deoxyhemoglobin (Homo sapiens, UniProt P68871+P69905). Put plainly: X-ray crystallographic studies with deoxyhemoglobin. Type of data set: binding. Here is the method:
X-ray Crystallographic Studies. Hemoglobin for the crystal studies was prepared from human blood, and T-state deoxy crystals were obtained from ammonium sulfate solutions. RSR-4 or RSR-13 (2 effectors/I Hb) was dissolved in a slight excess of sodium bicarbonate to facilitate dissolution and was added to a 6 g % solution of deoxy-Hb in the glove box. A 1 g % Hb RSR-4 or RSR-13 solution was added to each crystallization tube. Crystals grew in approximately 1 week. X-ray data were collected with Friedel pairs using ω scans on a Rigaku AFC5R diffractometer equipped with a rotating anode and a 60-cm long evacuated beam tunnel. The crystals with allosteric effectors were isomorphous with native deoxy-Hb: RSR-4, 63.2, 83.7, and 53.8 Å, 99.4°; RSR-13, 63.2, 83.6, and 53.7 Å, 99.5°. Data collection (RSR-4 to 2.4-Å and RSR-13 to 2.8-Å resolution) was controlled by TEXAN software from Molecular Structure Corp. (The Woodlands, Tex.). There was little radiation damage to crystals, and new crystals were mounted when standard reference reflection intensities fell by 10%. All data were corrected for radiation damage when appropriate. The R-factors for the Friedel pairs and derivatives vs. native were as follows: RSR-4 (2.4 Å), 14.6% and 18.9%, and RSR-13 (2.8 Å), 7.2% and 12.5%, respectively. The difference electron density maps were obtained using the Cambridge computer programs (CCP4). […] The allosteric effector molecules were well resolved and easily fit to the difference density.

For a further data set, the system named is hemoglobin in rat blood. Put plainly: In vivo effect in conscious rats: oxygen dissociation curve of blood after 2-h infusion. The following applies: for sign of distress: rats, during infusion. Here is the method:
In Vivo Studies. The in vivo effect of RSR-4 and RSR-13 was assessed in conscious rats that received (through a chronic femoral vein catheter) an initial 85.7±3.7 mg/kg dose of RSR-4 or 84.0±4.0 mg/kg dose of RSR-13, followed by 85.7±3.7mg/(kg h) RSR-4 or 84.0±4.0 mg/(kg h) RSR13, respectively, for 2 h. The oxygen dissociation curve was measured before infusion with a Hemox analyzer and, after the 2-h infusion, was manually measured with a tonometer and visible spectroscopy to avoid a dilution step (used with the Hemox analyzer) that would disrupt the equilibrium between the drug and erythrocytes. Tonometry was performed at a constant/pCO2 of 40 mmHg at 37° C. The pH of the blood was 7.443±0.012 (n=5) for the RSR-13 experiment and 7.412±0.098 (n=7) for the RSR-4 experiment. Control rats received an infusion of buffer solution with NaHCO3. A slight molar excess of NaHCO3 was used to better solubilize RSR-4.

As to `CC(C)(Oc1ccc(NC(=O)Nc2cc(Cl)cc(Cl)c2)cc1)C(=O)O` [L3,5, reference compound], at bovine hemoglobin, the “p50 shift at increasing chloride concentration” value is “identical at all chloride concentrations” and the “Hb bovine(p50)” value was 37 mmHg. Moreover, the “second symmetry-related pair of binding sites” value on deoxyhemoglobin (near Arg 104β) is given as “have a second symmetry-related pair of binding sites near Arg 104β”.
The term Hill coefficient denotes a measure of the steepness of the concentration-response curve. Regarding `CC(C)(Oc1ccc(CC(=O)Nc2cc(Cl)cc(Cl)c2)cc1)C(=O)O` [RSR-4, 2-[4-[[(3,5-dichloroanilino)carbonyl]methyl]phenoxy]-2-methylpropionic acid], the “potency in Hb solution” value at bovine hemoglobin (Hb solution studies, Table 2) is recorded as “significantly larger than that of L3,5”. Also, on bovine hemoglobin, the “p50 shift at increasing chloride concentration” value is given as “identical at all chloride concentrations” and the “Hb bovine(p50)” value worked out at 59 mmHg. Besides, in the data set with hemoglobin in rat blood (rats (n=7), 85.7±3.7 mg/kg iv then 85.7±3.7 mg/(kg h) for 2 h, control value 36.4±1.6), the p50 is reported as 60.7±8.1 mmHg. Also, in the data set on hemoglobin in rat blood (rats (n=7), 85.7±3.7 mg/kg iv then 85.7±3.7 mg/(kg h) for 2 h, initial 2.66±0.13), the Hill coefficient amounted to 1.74±0.08. Moreover, in the data set on hemoglobin in rat blood, the sign of distress entry is recorded as “did not show any sign of distress”.
Molecule `Cc1cc(C)cc(NC(=O)Cc2ccc(OC(C)(C)C(=O)O)cc2)c1` [RSR-13] came in with a Hill coefficient in the data set with hemoglobin in rat blood (rats (n=5), 84 mg/kg then 84 mg/(kg h) for 2 h, initial 2.62±0.10) of 1.73±0.08. Further, the p50 in the data set with hemoglobin in rat blood (rats (n=5), 84 mg/kg then 84 mg/(kg h) for 2 h, initial 36.0±2.7) stood at 61.4±5.8 mmHg. Further, the sign of distress result with hemoglobin in rat blood is listed as “did not show any sign of distress”. For the same molecule, at deoxyhemoglobin, the “binding site in deoxyhemoglobin crystal” value is given as “bind in the central water cavity in a conformation identical to that found for RSR-4”.
